Assay results reported in patent US20240391875A1, “ISOQUINOLINONES AND QUINOLINONES AS MODULATORS OF POLRMT” (Pretzel Therapeutics, Inc., priority 2021, published 2024).
pIC50: −log10 of the molar value.

target: POLRMT (Homo sapiens, UniProt O00411); assay: homogeneous TR-FRET assay of mitochondrial transcription (inhibition of POLRMT); assay type: biochemical; conditions: isoquinolinone compounds (Table 1)
Experimental: The inhibitory activity of the compounds of the present invention against POLRMT were determined by assays based on Bergbrede, T., et al., “An adaptable high-throughput technology enabling the identification of specific transcription modulators,” SLAC Discov., 22, 378-386 (2017).
The ability of some compounds of the present invention to inhibit POLRMT were determined in a homogeneous TR-FRET Assay using high-throughput screening in a 384-well plate format. This method is used to monitor the activity of mitochondrial transcription through measurement of its product, a 407 bp long RNA transcript. Detection of the product is facilitated by hybridization of two DNA-oligonucleotide probes to specific and adjacent sequences within the RNA product sequence. Upon annealing of the probes, two fluorophores are coupled directly to an acceptor nucleotide probe (ATTO647, 5′), or introduced via a coupled streptavidin with a biotinylated donor nucleotide probe (Europium cryptate) that is brought into sufficient proximity to serve as a fluorescence-donor-acceptor pair. Thus, a FRET signal at 665 nm is generated upon excitation at 340 nm.
Proteins used as transcription factors (POLRMT: NP_005026.3, TFAM: NP_003192.1, TFB2M: NP_071761.1) are diluted from their stocks to working concentrations of 1 μM, 20 μM and 4 μM respectively, in a dilution buffer containing 20 mM Tris-HCl (pH 8.0), 200 mM NaCl, 10% (v/v) glycerol, 1 mM Dithiothreitol (DTT), 0.5 mM EDTA.
DNA template is a pUC18 plasmid with the mitochondrial light strand promotor sequence (1-477) cloned between HindIII and BamHI sites. The DNA template is restriction linearized proximal to the promotor 3′-end (pUC-LSP).
The reaction mixture (10 uL) containing 7.5 nM POLRMT, 15 nM of TFB2M, 30 nM of TFAM, 0.5 nM of DNA template and 500 μM nucleotide triphosphate mix (NTPs) in a reaction buffer (containing 10 mM Tris-HCl (pH 7.5), 10 mM MgCl2, 40 mM NaCl, 10 mM DTT, 0.005% (w/v) Tween-20, 160 units/ml Rnase inhibitor and 0.1 mg/mL BSA) are dispensed to compounds in microplates, using a Thermo Multidrop® dispenser, and incubated at 37° C. in a VWR INCU-Line incubator for 60 minutes after mixing. No nucleotide triphosphate mix is added to negative control samples. Microplates with compounds to be tested in the assay are prepared from 10 mM compound stocks in 100% DMSO, equal amounts of DMSO without any compound are added to positive control and negative control samples.
During the incubation, a mix of the detection reagents is prepared in a buffer such that the enzymatic reaction is terminated due to chelating of Mg-ions and increased ionic strength, containing 50 mM Tris-HCl (pH 7.5), 700 mM NaCl, 20 mM EDTA, and 0.010% (w/v) Tween-20. Europium-streptavidin is pre-incubated with a 200-fold molar excess of a random sequence oligonucleotide to block unspecific binding of oligo, for two hours at ambient temperature in the dark. Afterwards, the blocked Europium-streptavidin is kept on ice until use.
At the end of the enzymatic reaction time, 5 μL detection oligo mix in the detection buffer is added, and assay plates are mixed and kept at ambient temperature for one hour, protected from light. The concentration of the Acceptor nucleotide oligo (e.g., ATTO647N-5′-[…]-3′) and Donor nucleotide oligo (e.g., bio-5′-AACACATCTCT(-bio)GCCAAACCCCA-bio-3′) in each assay well is 1 nM, and 3 nM, respectively.
After incubation with oligo mix, 5 μL of pre-blocked Europium-streptavidin reagent is dispensed to each assay well, assay plates are again mixed and kept at ambient temperature for one hour, protected from light.
The generated signal is measured with BMG Pherastar microtiter plate reader with a TRF light unit, using excitation at 340 nm, an integration time of 200 μs, and a delay time of 100 μs, before detection at 620 nm and 665 nm. The ratio of donor- and acceptor-fluorescence is used as a measure of the generated transcript product (i.e. enzymatic activity).

Sequence of POLRMT (O00411 42-1230): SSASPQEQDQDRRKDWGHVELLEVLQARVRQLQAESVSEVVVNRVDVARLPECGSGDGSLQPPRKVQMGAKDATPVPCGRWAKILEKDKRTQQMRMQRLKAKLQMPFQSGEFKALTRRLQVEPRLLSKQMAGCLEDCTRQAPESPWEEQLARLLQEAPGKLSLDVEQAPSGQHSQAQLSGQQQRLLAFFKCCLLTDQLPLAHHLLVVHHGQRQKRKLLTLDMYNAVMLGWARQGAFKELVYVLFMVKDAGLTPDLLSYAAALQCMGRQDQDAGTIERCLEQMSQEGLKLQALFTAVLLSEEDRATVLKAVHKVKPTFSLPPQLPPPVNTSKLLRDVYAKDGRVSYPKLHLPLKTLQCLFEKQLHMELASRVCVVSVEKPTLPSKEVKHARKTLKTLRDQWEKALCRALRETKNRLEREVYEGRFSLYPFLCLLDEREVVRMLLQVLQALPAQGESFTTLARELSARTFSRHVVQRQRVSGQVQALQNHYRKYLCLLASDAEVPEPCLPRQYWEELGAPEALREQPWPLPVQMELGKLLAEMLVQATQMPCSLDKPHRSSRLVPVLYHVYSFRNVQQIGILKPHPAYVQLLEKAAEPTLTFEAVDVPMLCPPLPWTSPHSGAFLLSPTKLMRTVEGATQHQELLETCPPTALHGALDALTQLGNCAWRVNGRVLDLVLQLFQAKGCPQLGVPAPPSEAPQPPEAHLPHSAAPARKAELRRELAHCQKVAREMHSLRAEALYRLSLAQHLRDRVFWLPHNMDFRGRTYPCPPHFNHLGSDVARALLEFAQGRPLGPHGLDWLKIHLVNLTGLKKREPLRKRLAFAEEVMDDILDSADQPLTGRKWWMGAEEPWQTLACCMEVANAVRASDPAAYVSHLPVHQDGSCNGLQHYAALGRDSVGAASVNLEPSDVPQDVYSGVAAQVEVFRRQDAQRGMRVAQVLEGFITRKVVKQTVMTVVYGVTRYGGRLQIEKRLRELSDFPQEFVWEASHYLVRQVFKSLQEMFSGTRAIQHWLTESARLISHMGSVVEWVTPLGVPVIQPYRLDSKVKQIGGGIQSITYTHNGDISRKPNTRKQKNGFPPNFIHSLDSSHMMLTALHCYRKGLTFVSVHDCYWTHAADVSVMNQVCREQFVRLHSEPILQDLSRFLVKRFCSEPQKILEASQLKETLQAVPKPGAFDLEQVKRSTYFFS

| Compound | pIC50 |
| --- | --- |
| CCc1ccccc1-c1c[nH]c(=O)c2cc(OCC(N)=O)ccc12 [Example 138, 2-((4-(2-ethylphenyl)-1-oxo-1,2-dihydroisoquinolin-7-yl)oxy)acetamide] | 4.92 |
| COC[C@@H]1COCCN1C(=O)[C@@H](C)Oc1ccc2c(-c3ccc(F)cc3Cl)c[nH]c(=O)c2c1 [Example 102, 4-(2-chloro-4-fluorophenyl)-7-(((R)-1-((R)-3-(methoxymethyl)morpholino)-1-oxopropan-2-yl)oxy)isoquinolin-1(2H)-one] | 6.15 |
| CC(C#N)Oc1ccc2c(-c3ccccc3Cl)c[nH]c(=O)c2c1 (single isomer, unassigned) [Example 58, 2-((4-(2-chlorophenyl)-1-oxo-1,2-dihydroisoquinolin-7-yl)oxy)propanenitrile] | 5.70 |
| C[C@@H](Oc1ccc2c(-c3ccc(F)cc3Cl)c[nH]c(=O)c2c1)C(=O)N1CC2CCC(C1)O2 [Example 105, 7-(((2R)-1-(8-oxa-3-azabicyclo[3.2.1]octan-3-yl)-1-oxopropan-2-yl)oxy)-4-(2-chloro-4-fluorophenyl)isoquinolin-1(2H)-one] | 6.70 |
| C[C@@H](Oc1ccc2c(-c3ccc(F)cc3Cl)c[nH]c(=O)c2c1)C(=O)N1CCS(=O)(=O)CC1 [Example 101, (R)-4-(2-chloro-4-fluorophenyl)-7-((1-(1,1-dioxidothiomorpholino)-1-oxopropan-2-yl)oxy)isoquinolin-1(2H)-one] | 5.70 |
| Cc1ccccc1-c1c[nH]c(=O)c2cc(NC(C)C(N)=O)ccc12 (stereo not drawn) [Example 69] | 4.92 |
| C[C@@H](Oc1ccc2c(-c3ccc(F)cc3Cl)c[nH]c(=O)c2c1)C(=O)N1CCOC[C@@H]1C(=O)O [Example 115, (R)-4-((R)-2-((4-(2-chloro-4-fluorophenyl)-1-oxo-1,2-dihydroisoquinolin-7-yl)oxy)propanoyl)morpholine-3-carboxylic acid] | 6.40 |
| Cc1ccccc1-c1c[nH]c(=O)c2cc(NC(C)C(N)=O)ccc12 (stereo not drawn) [Example 68] | 4.96 |
| CC(=O)N1CCC(C(=O)Nc2ccc3c(-c4ccccc4C)c[nH]c(=O)c3c2)CC1 [Example 33, 1-acetyl-N-(1-oxo-4-(o-tolyl)-1,2-dihydroisoquinolin-7-yl)piperidine-4-carboxamide] | < 4.00 |
| Cc1ccccc1-c1c[nH]c(=O)c2cc(OC(C)C#N)ccc12 (single isomer, unassigned) [Example 13, 2-((1-oxo-4-(o-tolyl)-1,2-dihydroisoquinolin-7-yl)oxy)propanenitrile] | 6.05 |
| Cc1ccccc1-c1c[nH]c(=O)c2cc(OCC#N)ccc12 [Example 36, 2-((1-oxo-4-(o-tolyl)-1,2-dihydroisoquinolin-7-yl)oxy)acetonitrile] | 6.70 |
| Cc1ccccc1-c1c[nH]c(=O)c2cc(O[C@H](C)C(=O)O)ccc12 [Example 88, (R)-2-((1-oxo-4-(o-tolyl)-1,2-dihydroisoquinolin-7-yl)oxy)propanoic acid] | 6.40 |
| Cc1ccccc1-c1c[nH]c(=O)c2cc(NC(C)C(=O)N(C)C)ccc12 (stereo not drawn) [Example 47] | 4.96 |
| Cc1sccc1-c1c[nH]c(=O)c2cc(OCC#N)ccc12 [Example 133, 2-((4-(2-methylthiophen-3-yl)-1-oxo-1,2-dihydroisoquinolin-7-yl)oxy)acetonitrile] | 6.00 |
| Cc1ccccc1-c1c[nH]c(=O)c2cc(OCCN(C)C)ccc12 [Example 10, 7-(2-(dimethylamino)ethoxy)-4-(o-tolyl)isoquinolin-1(2H)-one] | < 4.00 |
| C[C@@H](Oc1ccc2c(-c3ccc(F)cc3Cl)c[nH]c(=O)c2c1)C(=O)N1CCCC(S(C)(=O)=O)C1 (single isomer, unassigned) [Example 96] | 5.70 |

| Compound | pIC50 |
| --- | --- |
| Cc1cc(F)cc(C)c1-c1c[nH]c(=O)c2cc(OCC(=O)O)ccc12 [Example 110, 2-((4-(4-fluoro-2,6-dimethylphenyl)-1-oxo-1,2-dihydroisoquinolin-7-yl)oxy)acetic acid] | 4.60 |
| CC(=O)N1CC[C@@H](Oc2ccc3c(-c4ccccc4C)c[nH]c(=O)c3c2)C1 [Example 16, (R)-7-((1-acetylpyrrolidin-3-yl)oxy)-4-(o-tolyl)isoquinolin-1(2H)-one] | 4.29 |
| Cc1ccccc1-c1c[nH]c(=O)c2cc(CO)ccc12 [Example 15, 7-(hydroxymethyl)-4-(o-tolyl)isoquinolin-1(2H)-one] | 4.29 |
| CC(=O)N(C)Cc1ccc2c(-c3ccccc3C)c[nH]c(=O)c2c1 [Example 45, N-methyl-N-((1-oxo-4-(o-tolyl)-1,2-dihydroisoquinolin-7-yl)methyl)acetamide] | < 4.00 |
| Cc1ccccc1-c1c[nH]c(=O)c2cc(O[C@H](C)C(=O)N3CCCC(S(C)(=O)=O)C3)ccc12 (single isomer, unassigned) [Example 97] | 6.52 |
| C[C@@H](Oc1ccc2c(-c3ccc(F)cc3Cl)c[nH]c(=O)c2c1)C(=O)N1CC2CC1CN2C (stereo partly drawn) [Example 127, 4-(2-chloro-4-fluorophenyl)-7-(((2R)-1-(5-methyl-2,5-diazabicyclo[2.2.1]heptan-2-yl)-1-oxopropan-2-yl)oxy)isoquinolin-1(2H)-one] | 5.70 |
| C[C@@H](Oc1ccc2c(-c3ccc(F)cc3Cl)c[nH]c(=O)c2c1)C(=O)N1CCO[C@@H](C(N)=O)C1 [Example 129, (R)-4-((R)-2-((4-(2-chloro-4-fluorophenyl)-1-oxo-1,2-dihydroisoquinolin-7-yl)oxy)propanoyl)morpholine-2-carboxamide] | 6.00 |
| COCC(Oc1ccc2c(-c3ccccc3C)c[nH]c(=O)c2c1)C(N)=O (single isomer, unassigned) [Example 52] | < 4.00 |
| Cc1ccccc1-c1c[nH]c(=O)c2cc(OCC(=O)N(C)C)ccc12 [Example 8, N,N-dimethyl-2-((1-oxo-4-(o-tolyl)-1,2-dihydroisoquinolin-7-yl)oxy)acetamide] | 4.46 |
| Cc1ccccc1-c1c[nH]c(=O)c2cc(-c3ccccc3)ccc12 [Example 48, 7-phenyl-4-(o-tolyl)isoquinolin-1(2H)-one] | 6.70 |
| CC(=O)N1CC[C@H](Oc2ccc3c(-c4ccccc4C)c[nH]c(=O)c3c2)C1 [Example 17, (S)-7-((1-acetylpyrrolidin-3-yl)oxy)-4-(o-tolyl)isoquinolin-1(2H)-one] | 4.09 |
| Cc1ccccc1-c1c[nH]c(=O)c2cc(O[C@H](C)C(=O)N3CCCC(S(C)(=O)=O)C3)ccc12 (single isomer, unassigned) [Example 98] | 6.52 |
| Cc1ccccc1-c1c[nH]c(=O)c2cc(OCC(N)=O)ccc12 [Example 63, 2-((1-oxo-4-(o-tolyl)-1,2-dihydroisoquinolin-7-yl)oxy)acetamide] | 5.52 |
| Cc1ccccc1-c1c[nH]c(=O)c2cc(OC(C)C)ccc12 [Example 4, 7-isopropoxy-4-(o-tolyl)isoquinolin-1(2H)-one] | 6.40 |
| Cc1ccccc1-c1c[nH]c(=O)c2cc(O[C@H](C)C(=O)N3CCC(C(=O)O)CC3)ccc12 [Example 24, (R)-1-(2-((1-oxo-4-(o-tolyl)-1,2-dihydroisoquinolin-7-yl)oxy)propanoyl)piperidine-4-carboxylic acid] | 7.30 |

same assay, conditions: quinolinone compounds (Table 2)

| Compound | pIC50 |
| --- | --- |
| C[C@@H](Oc1ccc2c(-c3ccc(F)cc3Cl)cc(=O)[nH]c2c1)C(=O)N(C)C [Example Q6, (R)-2-((4-(2-chloro-4-fluorophenyl)-2-oxo-1,2-dihydroquinolin-7-yl)oxy)-N,N-dimethylpropanamide] | 4.74 |
| Cc1ccccc1-c1cc(=O)[nH]c2cc(O[C@@H](C)C(=O)N(C)C)ccc12 (single isomer, unassigned) [Example Q8] | < 4.00 |
